Consider two molecules from patent US10648917B2, “Luminescent compositions and applications thereof” (THE PENN STATE RESEARCH FOUNDATION, priority 2015, dated 2020).

Data set [1] can be described thus: pH dependence of fluorescence / pH sensing. The format is physicochemical. On the procedure: (§1) Absorbance Spectra were recorded on Tecan Infinite M200 Pro UV-vis spectroscopy, and fluorescence spectra were recorded on Horiba FluoroMax-4 fluorospectroscopy at concentrations below 0.1 O.D. unless otherwise indicated. Quantum Yields were measured on the Quantum φ Integrating Sphere accessory to the FluoroMax-4, while lifetime measurements were determined through the Time-Correlation Single Photon Counting (TCSPC) accessory to the FluroMax-4. TCSPC was utilized in conjunction with NanoLED pulsed diode light source with peak excitation wavelength at 352 nm and at 10,000 counts peak preset. Emission was collected at the fluorescence λmax, unless otherwise indicated. For all pH-dependence experiments, sample pH was adjusted with sulfuric acid or sodium hydroxide. For all chloride-dependent quenching experiments, magnesium chloride hexahydrate (Sigma Aldrich) was used.
pH Dependence of CA-Cys Fluorescence. Of all solvent and environmental factors that affect fluorescence, CA-Cys appeared to display the greatest sensitivity to changes in pH. […] From a detailed analysis of FIG. 13, four correlations were observed. Fluorescence properties of CA-Cys were invariable from high basicity to a pH of 4.84, from which the excitation λmax began to red-shift from 350 nm, emission λmax began to red-shift from 418 nm, maximum fluorescence intensity began to decrease, and quantum yield began to decrease. As acidity was increased, all four trends continued until pH 2.44, from which the excitation λmax plateaued at 365 nm, emission plateaued at 445 nm, and fluorescence intensity and quantum yield both experienced a short local plateau. Similarly, Stokes shift increased from 67 nm to 80 nm in high acidity. Lastly, absorbance λmax shifted similarly to that of the maximum excitation, while absorbance intensities remained relatively constant. […] All of these patterns were reminiscent of a pH-dependent equilibrium, thus the predominant mechanism of intensity quenching and bathochromic shifts was hypothesized to be attributed to changes in protolytic equilibria. The noticeably linear quenching of intensities past pH 1.63 is discussed with respect to lifetime analysis herein below.
There is a predictable, linear increase in intensity from pH 3 to 4.5. Furthermore, emission collected at a fixed 445 nm is shown in FIG. 15 to be an isobestic point where intensities are independent of pH (up to pH 1), which should greatly improve the functionality of CA-Cys as a pH sensor. In other words, utilizing 445 nm as a dual-wavelength reference point allows for background subtraction and normalization with respect to absorbance or concentration. […] Furthermore, I418 nm/I445 nm increases linearly in the region of pH 3 to 4.5 for accurate determination of pH within this region, plotted and fitted with an R^2 value of 0.982. To sum up, I418 nm/I445 nm values near 1.6 indicate pH above 4.5, values below 0.7 indicate highly acidic environments below pH 3, while any intermediate I418 nm/I445 nm values can determine the exact pH with good accuracy. It is important to note that CA-Cys fluorescence is in accordance with Kasha's rule, i.e. fluorescence occurs from the lowest excited state, S1→S0, thus the emission λmax is independent of the excitation wavelength, and a fluorescence excitation scan at a fixed emission of 418 nm or 445 nm would provide the maximum fluorescence intensity for that emission wavelength. Also of importance is the reliable range of the isobestic point, which is broken at high acidities (noticeably below pH 1) due to dynamic quenching effects.

Data set [2] can be described thus: Time-resolved fluorescence lifetime (TCSPC). The format is physicochemical. On the procedure:
Fluorescence lifetimes were determined by using the Time-Correlation Single Photon Counting (TCSPC) accessory to the FluroMax-4 (Horiba, NJ). NanoLED pulse light sources at wavelengths of 352 nm and 390 nm were used for excitation. For each decay curve, 10,000 photons were collected. Fluorescence lifetime decays were fitted with an exponential series according to equation 1 below:
[formula] where F(t) is the lifetime decay function with respect to time t, Ti is the lifetime value of the emitting species, A is the background offset, and Bi is the pre-exponential function of the emitting species. The method of least squares was used to quantify χ^2 based on the decay data and the fitting function, where χ^2 values smaller than 1.2 indicates a good fit; and values above 1.2 indicate need for multiple exponential fitting in equation 1. If the lifetime decay is dominated by one emitting species, the equation can be simplified to include only the first two terms. One exponential fitting is good for TPA based fluorophores. However, for DPR based fluorophores, only three exponential fitting gives a χ^2 smaller than 1.2. E. Computational Modeling
as §1
Fluorescence lifetime decays were fitted with an exponential series according to equation 5 below:
[formula] Where F(t) is the lifetime decay function with respect to time t, Ti is the lifetime value of the emitting species, A is the background offset, and Bi is the pre-exponential function of the emitting species. If the lifetime decay is dominated by one emitting species, the equation can be simplified to include only the first two terms. Bi measures the relative amplitude of the specified fluorophore, where the percent contribution of the fluorophore to the lifetime decay, f, is derived from equation 6:
[formula] The method of least squares was used to quantify χ^2 based on the decay data and the fitting function, where χ^2 values under 1.2 indicates a good fit, and values above 1.2 indicate need for additional terms in equation 5. Typically, an additional exponential term was necessary to improve the χ^2 value and account for the presence of a negligible 6 ns species, deemed to stem from by-products of CFD synthesis, impurities, or CFD dimers. Since the contribution from this species was minor, often less than 5%, it was not included in lifetime analysis.

As for `CC(C(=O)O)N1C(=O)C=C(C(=O)O)CC1=O` (centres unmarked) [CA-Ala], the “pH of sharp colorimetric transition” value in data set [1] came out at 9.75. In data set [2] (three exponential model), the “fluorescence lifetime τ1” value was found to be 0.95 ns, the “fluorescence lifetime τ2” value is reported as 4.44 ns and the “fluorescence lifetime τ3” value turned out to be 10.35 ns.

As to `O=C(O)c1cc2n(c(=O)c1)C(C(=O)O)CS2` (centres unmarked) [CA-Cys], the “emission transition (pH)” value in data set [1] was determined as 3.27. Further, the “isobestic absorption point (pH)” value in data set [1] came to 3.35. Moreover, the entries for the “I418 nm/I445 nm ratio” value in data set [1] (acidic range) and in data set [1] (basic range) were 0.7 and 1.6, respectively. Besides, the Stokes shift is 67 nm in data set [1] (before increase (basic)) and 80 nm in data set [1] (in high acidity). Also, the “emission λmax plateau” value in data set [1] (from pH 2.44) turned out to be 445 nm. In addition, the “excitation λmax plateau” value in data set [1] (from pH 2.44) is 365 nm. Moreover, the “quenching of emission intensity at fixed 418 nm” value in data set [1] (from pH 4.5-11 to pH 1-3) is given as “roughly 2.25 fold”. Besides, the “emission λmax” value in data set [1] (high basicity to pH 4.84) came to 418 nm. Besides, in data set [1] (high basicity to pH 4.84), the “excitation λmax” value came to 350 nm. Moreover, the “quenching of overall fluorescence” value in data set [1] (upon protonation of first carboxyl group) amounted to 1.37 fold. Further, the τ in data set [2] (Anion protolytic state) was 11.19 ns; in data set [2] (Dianion protolytic state (physiological pH)), 10.06 ns; in data set [2] (Neutral protolytic state), “Quenched”. In addition, in data set [2] (one-exponential decay, pulsed excitation at 352 nm, maximum emission wavelength), the “fluorescence lifetime τ” value stood at 10.46 ns.
